The results in this text go back to patent US20260028354A1, “TETRAHYDRONAPHTHALENE DERIVATIVES AS ESTROGEN RECEPTOR DEGRADERS” (REGENT OF THE UNIVERSITY OF MICHIGAN, priority 2022, published 2026).

pIC50: −log10 of the molar value. Read-outs that look alike come from different tables or passages of the source.

The target of one assay is ER in MCF-7 cells (Homo sapiens (Human), UniProt P03372). Briefly: In-cell Western (ICW) ER degradation assay in MCF-7 cells. The note with it: for DC50: MCF-7, ER degradation, read-out: MCF7 DC50. It counts as cell-based.
Another assay concerns MCF-7 cells. Briefly: CellTiter-Glo (CTG) cell proliferation assay in MCF-7 cells. It counts as cell-based. The note with it: Homo sapiens, MCF7, 144 h, MCF-7 cell proliferation, Day 6. The source says:
CellTiter-Glo® (CTG) Assays in MCF-7 and T47D Cell Lines.
In vitro Assay: MCF-7 and T47D CTG assay
(In ATP-based viability assays light output follows the ATP content of the culture.)

[1] abbreviates: MCF7, MCF-7, maximal ER degradation, 16 hrs treatment, read-out: MCF7 Dmax.
The mark [2] stands for this setting: MCF7, read-out: MCF7 Dmax, MCF-7, maximal ER degradation, 16 hrs treatment.

Sequence of ER in MCF-7 cells (P03372 whole entry): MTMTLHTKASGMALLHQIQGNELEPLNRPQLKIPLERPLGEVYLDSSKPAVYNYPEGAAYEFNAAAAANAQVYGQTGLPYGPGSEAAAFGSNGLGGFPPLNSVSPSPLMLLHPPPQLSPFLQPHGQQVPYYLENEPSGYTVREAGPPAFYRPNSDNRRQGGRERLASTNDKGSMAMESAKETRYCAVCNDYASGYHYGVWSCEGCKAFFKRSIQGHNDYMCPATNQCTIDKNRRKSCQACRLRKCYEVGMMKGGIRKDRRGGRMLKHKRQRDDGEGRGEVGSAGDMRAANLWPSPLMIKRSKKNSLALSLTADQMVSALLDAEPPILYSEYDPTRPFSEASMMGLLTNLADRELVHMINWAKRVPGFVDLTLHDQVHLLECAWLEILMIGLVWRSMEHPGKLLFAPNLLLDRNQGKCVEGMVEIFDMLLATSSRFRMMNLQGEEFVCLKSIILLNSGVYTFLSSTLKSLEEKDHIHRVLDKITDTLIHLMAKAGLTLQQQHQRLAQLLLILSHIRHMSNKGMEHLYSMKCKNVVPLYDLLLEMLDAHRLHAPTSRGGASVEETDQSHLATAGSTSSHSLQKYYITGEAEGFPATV

Turning to `COc1c([C@@H]2c3ccc(O)cc3CC[C@@H]2c2ccccc2)ccc(N2CCC3(CC2)CC(CN2CCN4c5cc6c(cc5OC[C@@H]4C2)C(=O)N([C@H]2CCC(=O)NC2=O)C6)C3)c1F` [Compound A197, (S)-3-((S)-3-((7-(2-fluoro-4-((1S,2S)-6-hydroxy-2-phenyl-1,2,3,4-tetrahydronaphthalen-1-yl)-3-methoxyphenyl)-7-aza-spiro[3.5]nonan-2-yl)methyl)-8-oxo-1,2,3,4,4a,5,8,10-octa-hydro-9H-pyrazino[1′,2′:4,5] [1,4]oxazino[2,3-f]isoindol-9-yl)piperidine-2,6-dione], the Dmax on ER in MCF-7 cells (setting [1]) is greater than 75%. In addition, the DC50 at ER in MCF-7 cells (16 hrs treatment) is less than 0.001 µM. The same compound showed a pIC50 with MCF-7 cells of 7.00 to 8.00.

`COc1c([C@@H]2c3ccc(O)cc3CC[C@@H]2c2ccccc2)ccc(N2CCC3(CC2)CC(CN2CCC4(CC2)COc2c4ccc4c2CN([C@H]2CCC(=O)NC2=O)C4=O)C3)c1F` [Compound A198, (S)-3-(1′-((7-(2-fluoro-4-((1S, 2S)-6-hydroxy-2-phenyl-1,2,3,4-tetrahydronaphthalen-1-yl)-3-methoxyphenyl)-7-aza-spiro[3.5]nonan-2-yl)methyl)-6-oxo-6,8-dihydro-2H,7H-spiro[furo[2,3-e]isoindole-3,4′-piperidin]-7-yl)piperidine-2,6-dione]: on ER in MCF-7 cells (setting [2]), the Dmax fell in the range of 50 to 75%. Also, the DC50 on ER in MCF-7 cells (16 hrs treatment) is less than 0.001 µM. This compound showed a pIC50 in the assay on MCF-7 cells of 7.00 to 8.00.

On to `COc1c([C@@H]2c3ccc(O)cc3CC[C@@H]2c2ccccc2)ccc(N2CCC3(CC2)CC(CN2CCC4(CC2)COc2cc5c(cc24)CN([C@H]2CCC(=O)NC2=O)C5=O)C3)c1F` [Compound A199, (S)-3-(1′-((7-(2-fluoro-4-((1S, 2S)-6-hydroxy-2-phenyl-1,2,3,4-tetrahydronaphthalen-1-yl)-3-methoxyphenyl)-7-aza-spiro[3.5]nonan-2-yl)methyl)-7-oxo-5,7-dihydro-2H,6H-spiro[furo[2,3-f]isoindole-3,4′-piperidin]-6-yl)piperidine-2,6-dione], for which the Dmax at ER in MCF-7 cells (setting [2]) lay in the range of 50 to 75%. In addition, the DC50 on ER in MCF-7 cells (16 hrs treatment) is less than 0.001 µM. The compound further showed a pIC50 in the assay on MCF-7 cells greater than 8.00.

Turning to `COc1cc(N2CCC3(CC2)CC(CN2CCC4(CC2)COc2c4cc(Cl)c4c2CN([C@H]2CCC(=O)NC2=O)C4=O)C3)c(F)cc1[C@@H]1c2ccc(O)cc2CC[C@@H]1c1ccccc1` [Compound A200, (S)-3-(5-chloro-1′-((7-(2-fluoro-4-((1S,2S)-6-hydroxy-2-phenyl-1,2,3,4-tetrahydro-naphthalen-1-yl)-5-methoxy-phenyl)-7-azaspiro[3.5]nonan-2-yl)methyl)-6-oxo-6,8-dihydro-2H,7H-spiro[furo[2,3-e]isoindole-3,4′-piperidin]-7-yl)piperidine-2,6-dione], the Dmax at ER in MCF-7 cells (setting [2]) is greater than 75%. The DC50 on ER in MCF-7 cells (16 hrs treatment) is less than 0.001 µM. Also, the pIC50 with MCF-7 cells is greater than 8.00.

Take `O=C1CC[C@H](N2Cc3c(ccc4c3OCC43CCN(CC4CC5(CCN(c6cnc(C7c8ccc(O)cc8CCC7c7ccccc7)cn6)CC5)C4)CC3)C2=O)C(=O)N1` (stereo partly drawn) [Compound A201, (3S)-3-(1′-((7-(5-(6-hydroxy-2-phenyl-1,2,3,4-tetrahydro-naphthalen-1-yl)pyrazin-2-yl)-7-azaspiro[3.5]nonan-2-yl)-methyl)-6-oxo-6,8-dihydro-2H, 7H-spiro[furo[2,3-e]isoindole-3,4′-piperidin]-7-yl)piperidine-2,6-dione]: on ER in MCF-7 cells (setting [2]), the Dmax is 50 to 75%. The DC50 at ER in MCF-7 cells (16 hrs treatment) was less than 0.001 µM. The pIC50 in the assay with MCF-7 cells is less than 7.00.

For `O=C1CC[C@H](N2Cc3cc4c(cc3C2=O)OCC42CCN(CC3CC4(CCN(c5cnc(C6c7ccc(O)cc7CCC6c6ccccc6)cn5)CC4)C3)CC2)C(=O)N1` (stereo partly drawn) [Compound A202, (3S)-3-(1′-((7-(5-(6-hydroxy-2-phenyl-1,2,3,4-tetrahydronaph-thalen-1-yl)pyrazin-2-yl)-7-azaspiro[3.5]nonan-2-yl)meth-yl)-7-oxo-5,7-dihydro-2H,6H-spiro[furo[2,3-f]isoindole-3,4′-piperidin]-6-yl)piperidine-2,6-dione], on ER in MCF-7 cells (setting [2]), the maximal degradation (Dmax) lay in the range of 50 to 75%. At ER in MCF-7 cells (16 hrs treatment), the DC50 is less than 0.001 µM. In the assay with MCF-7 cells, this compound showed a pIC50 of less than 7.00.

In the case of `COc1cc(N2CCC3(CC2)CC(CN2CCC4(CC2)COc2c4cc(C)c4c2CN([C@H]2CCC(=O)NC2=O)C4=O)C3)c(F)cc1[C@@H]1c2ccc(O)cc2CC[C@@H]1c1ccccc1` [Compound A203, (S)-3-(1′-((7-(2-fluoro-4-((1S,2S)-6-hydroxy-2-phenyl-1,2,3,4-tetrahydronaphthalen-1-yl)-5-methoxyphenyl)-7-azaspiro[3.5]nonan-2-yl)methyl)-5-methyl-6-oxo-6,8-dihydro-2H,7H-spiro[furo[2,3-e]isoindole-3,4′-piperidin]-7-yl)piperidine-2,6-dione], the Dmax at ER in MCF-7 cells (setting [2]) was greater than 75%. For the same compound, at ER in MCF-7 cells (16 hrs treatment), the DC50 was less than 0.001 µM. This compound gave a pIC50 in the assay with MCF-7 cells greater than 8.00.

Regarding `COc1cc(N2CC(CCN3CCN4c5ccc6c(c5OC[C@H]4C3)CN([C@H]3CCC(=O)NC3=O)C6=O)C2)c(F)cc1[C@@H]1c2ccc(O)cc2CC[C@@H]1c1ccccc1` [Compound A204, (S)-3-((R)-7-(2-(1-(2-fluoro-4-((1S,2S)-6-hydroxy-2-phenyl-1,2,3,4-tetrahydronaphthalen-1-yl)-5-methoxyphenyl)azet-idin-3-yl)ethyl)-1-oxo-1,3,5,5a, 6,7,8,9-octahydro-2H-pyrazino [1′,2′:4,5][1,4]oxazino[2,3-e]isoindol-2-yl)piperidine-2,6-dione], the Dmax at ER in MCF-7 cells (setting [1]) lay within 50 to 75%. The DC50 at ER in MCF-7 cells (16 hrs treatment) fell in the range of 0.001 to 0.01 µM. For the same compound, the pIC50 in the assay with MCF-7 cells is less than 7.00.

On to `COc1cc(N2CC(CCN3CCC4(CC3)COc3cc5c(cc34)CN([C@H]3CCC(=O)NC3=O)C5=O)C2)c(F)cc1[C@@H]1c2ccc(O)cc2CC[C@@H]1c1ccccc1` [Compound A205, (S)-3-(1′-(2-(1-(2-fluoro-4-((1S,2S)-6-hydroxy-2-phenyl-1,2,3,4-tetrahydronaphthalen-1-yl)-5-methoxyphenyl)-azet-idin-3-yl)ethyl)-7-oxo-5,7-dihydro-2H,6H-spiro[furo[2,3-f]isoindole-3,4′-piperidin]-6-yl)piperidine-2,6-dione], for which, on ER in MCF-7 cells (setting [2]), the Dmax is 25 to 50%. Besides, the DC50 on ER in MCF-7 cells (16 hrs treatment) fell in the range of 0.001 to 0.01 µM. Moreover, the pIC50 in the assay with MCF-7 cells is less than 7.00.

For the compound `COc1cc(N2CC(CCN3CCC4(CC3)COc3c4ccc4c3CN([C@H]3CCC(=O)NC3=O)C4=O)C2)c(F)cc1[C@@H]1c2ccc(O)cc2CC[C@@H]1c1ccccc1` [Compound A206, (S)-3-(1′-(2-(1-(2-fluoro-4-((1S,2S)-6-hydroxy-2-phenyl-1,2,3,4-tetrahydronaphthalen-1-yl)-5-methoxyphenyl)azet-idin-3-yl)ethyl)-6-oxo-6,8-dihydro-2H,7H-spiro[furo[2,3-e]isoindole-3,4′-piperidin]-7-yl)piperidine-2,6-dione], at ER in MCF-7 cells (setting [2]), the Dmax lay within 50 to 75%. For the same compound, the DC50 on ER in MCF-7 cells (16 hrs treatment) is 0.001 to 0.01 µM. Also, the pIC50 with MCF-7 cells is less than 7.00.

Take `Cc1cc2c(c3c1C(=O)N([C@H]1CCC(=O)NC1=O)C3)OCC21CCN(C[C@H]2CCC3(CCN(c4ccc([C@@H]5c6ccc(O)cc6CC[C@@H]5c5ccccc5)cc4)CC3)OC2)CC1` [Compound A210, (S)-3-(1′-(((R)-9-(4-((1R,2S)-6-hydroxy-2-phenyl-1,2,3,4-tetrahydronaphthalen-1-yl)phenyl)-1-oxa-9-azaspiro[5.5]undecan-3-yl)methyl)-5-methyl-6-oxo-6,8-dihydro-2H,7H-spiro[furo[2,3-e]isoindole-3,4′-piperidin]-7-yl)piperidine-2,6-dione]: at ER in MCF-7 cells (setting [2]), the Dmax is greater than 75%. Moreover, the DC50 on ER in MCF-7 cells (16 hrs treatment) is less than 0.001 µM. The compound also gave a pIC50 in the assay with MCF-7 cells greater than 8.00.

What is called Dmax is the greatest extent of degradation seen. Broadly, the DC50 is the concentration at which degradation of the target reaches its halfway point. The term pIC50 denotes −log10 of the IC50, conventionally taken in molar units. A lower pIC50 goes with a large IC50.
